The test system of this test is primary human articular chondrocytes. Nature of the test: Primary human articular chondrocytes in chondrogenesis and IL1β OA disease model: gene expression. Conditions: 100 nM; for MATN3 gene expression, increase vs DMSO / SMOC2 gene expression, increase vs DMSO: N=1. It counts as cell-based. The protocol: Articular cartilage was isolated, placed into a petri dish containing phosphate buffer saline (PBS) supplemented with 2% Ab/Am (PBS-Ab/Am) and transferred to a laminar flow hood for processing. Cartilage shavings were minced using a sterile scalpel to approximately 1 mm^3 and washed in fresh PBS-Ab/Am by centrifugation at 500×g for 10 minutes. Supernatant was removed and the cartilage pellet resuspended in 5 ml TrypLE™ (Gibco) before incubation at 37° C. for 10 minutes with gentle agitation. Dissociated cartilage fragments were pelleted and washed to remove excess TrypLE and resuspended in DMEM-complete media (DMEM/F12 (Gibco), 1% Ab/Am, 10% FBS) supplemented with 2 mg/ml Collagenase Type II and incubated overnight at 37° C. with gentle agitation. The cartilage digest was pelleted, washed and subsequently resuspended in DMEM-complete. Released cells were counted using a haematocytometer and seeded at 10,000 cells per cm^2. The cultures were incubated at 37° C., 5% CO2 in a humidified incubator for 2 days before refreshing DMEM-complete every 2 days until confluency. For differentiation experiments, primary chondrocytes were differentiated in DMEM/F12 containing 2% FBS, 1% Ab/Am, 1× Insulin-Transferrin-Selenium premix, 10 ng/ml TGFβ3 (primary chondrocyte differentiation media).
Additional experiments were carried out on primary chondrocytes (equine, canine and human) and ihMSC (TERT immortalised human mesenchymal stromal cell line) to investigate whether CDK8i protects from IL-1β induced degradation when added throughout the entirety of differentiation/IL-1β treatment. Briefly, ihMSCs were seeded at a density of 5×10^4 cells per 10 μl micromass and differentiated in ihMSC chondrogenic media (1% FBS, 1% Ab/Am, 1× Insulin-Transferrin-Selenium premix, 10 μM Y-27632, 100 nM dexamethasone, 50 μg/ml ascorbic acid, 20 ng/ml TGF-β3 (Peprotech)). Primary chondrocytes were seeded at 2.7×10^5 cells per 10 μl micromass and differentiated in primary chondrocyte differentiation media. All micromasses were differentiated for 12 days in the presence of 100 nM […] or DMSO. Some micromasses were processed for gene expression analysis/alcian blue staining on day 12, whilst others were treated with IL-β media (1% FBS, 1% Ab/Am, 10 ng/ml IL-1B) and CDK8i for 48-hours before processing for alcian blue staining/gene expression analysis on day 14 as previously described.

For `Cc1n[nH]c2ncc(C(=O)N3CCC[C@H]3c3ccc(Cl)cc3)cc12` [MSC2530818], the “ADAMTS5 gene expression, reduction vs DMSO” value (OA disease model (+IL1β), p=0.053) was 2.5 fold. Moreover, under “chondrogenic (−IL1β)”, the “MATN3 gene expression, increase vs DMSO” value came out at 100 fold and the “SMOC2 gene expression, increase vs DMSO” value was 6 fold. Moreover, where the note is “disease model (+IL1β)”, the “MATN3 gene expression, increase vs DMSO” value was found to be 12 fold and the “SMOC2 gene expression, increase vs DMSO” value was 7 fold.

For the origin of these results see patent US20250312320A1, “METHOD AND TREATMENT FOR OSTEOARTHRITIS AND DISEASES OF CHONDROCYTE HYPERTROPHY” (The Royal Veterinary College, priority 2022, published 2025).
